We go through 15 compounds from patent US9718809B2, “Bisarylsulfonamides useful in the treatment of inflammation and cancer” (Kancera AB, priority 2011, dated 2017).

Counter-ions that a name gives are not always drawn.

The subject of one experiment is F-2,6-P2 in PANC-1 cells. Kind of experiment: Quantification of F-2,6-P2 (Van Schaftingen coupled enzyme assay) in PANC-1 cells. The format is cell-based, human. The note with it: Homo sapiens; PANC-1 cells; read-out: IC50 based on quantification of F-2,6-P2. The text has this: A method for quantification of F-2,6-P2 has been described by Van Schaftingen et al. (1982) Eur. J. Biochem. 129, 191-5. This sensitive assay is based on the potent activation of pyrophosphate dependent phosphofructokinase-1 (PPi-PFK) from potato tubers by F-2,6-P2. The use of a series of coupled enzymes leads to a consumption of NADH (nicotinamide adenine dinucleotide) that can be followed spectrophotometrically (an updated protocol is available in Van Schaftingen, (1984) Methods of Enzymatic Analysis (Bergmeyer, H. U., ed.), 3rd edn., vol. 6, pp. 335-341, Verlag Chemie, Weinheim). A protocol for measurements in 96-well microtiter plate format is also available (Bruni et al., (1989) Anal. Biochem. 178, 324-6).
The levels of F-2,6-P2 have been determined using the van Shaftingen assay as described in the protocol below, in six different cancer cell lines endogenously expressing varying levels of the different isoforms of PFK-2/BPase-2 (MCF-7, PANC-1, NUGC-3, SW480, SW620 and MIA PaCa-2). All reagents were purchased from commercial sources or prepared in-house.
Cell line B (PANC-1, human pancreatic carcinoma cell line): PANC-1 cells (ATCC-CRL-1469), lot. no. 58564651. Cells were seeded at a concentration of ˜250 000 cells/mL in 100 μL growth medium (˜25 000 cells/well).
Growth medium (cell lines B-F): Dulbecco's Modified Eagle's Medium, DMEM, VWR, LONZ12-604F; 10% FBS, Invitrogen, 10270-106.
Starvation medium (cell lines A-F): DMEM/F12 without phenol red and glucose free, SVA, 991373; 0.25% FBS, Invitrogen, 10270-106.
Induction medium (cell lines A-F): DMEM/F12 without phenol red and glucose free, SVA, 991373; 0.25% FBS, Invitrogen, 10270-106 (same as starvation medium).
Cells were seeded in 96-well Corning Costar tissue culture plates (CLS3595, Sigma-Aldrich) using the concentrations specified above for the different cell lines A-F and incubated over night at 37° C. and 5% CO2. Row A in the plate was left empty and the cell lines added to rows B-H. Next day the growth medium was discarded and replaced with 100 μL starvation medium. The plates were incubated for 18 h at 37° C. and 5% CO2. After 18 h of starvation the cells were induced with 100 μL compound or control solutions. Compounds were either tested in two concentrations (50 μM and 10 μM) or in dose response curves starting from 50 μM. The final DMSO concentration in assay plates was 0.5%. Also a dose response curve of a reference inhibitor was included in row H on each plate. All compounds were tested in duplicate plates. Compounds (in 96 well CLS 3365, Sigma-Aldrich plates) were serial diluted in DMSO from 10 mM compound DMSO stock solutions with Janus (automated liquid handling workstation from PerkinElmer). Five μL were transferred to a Greiner deep well plate (736-0155, VWR) with 495 μL starvation medium. The final start concentration of compounds in the dilution plate was 100 μM, 1% DMSO. For compounds tested as single points, 10 mM compound solutions were diluted five fold in DMSO to 2 mM, followed by the transfer of 5 μL to separate dilution plates with 495 μL starvation medium. The final concentrations of compounds in these dilution plates were 100 or 20 μM, respectively, and final concentration of DMSO was 1%. The plates were incubated at 37° C. and 5% CO2 for 1 h, followed by the addition of 10 μL 20 mM D-glucose in starvation medium. Controls, with and without 1 mM glucose, were included in row B. The final assay volume was 210 μL per well. After 2 h of incubation at 37° C. and 5% CO2, the supernatants were discarded and the cells lysed by the addition of 25 μL 250 mM NaOH. The plates were incubated at 37° C. and 5% CO2 for 5 min followed by an addition of 75 μL MilliQ dH2O. The supernatants were further diluted with 210 μL MilliQ dH2O to a final concentration of 20 mM NaOH. 200 μL were transferred to NUNC 96-well plates (7322661, VWR) and the plates were sealed and stored at −20° C. until analysis. […]
The term IC50 denotes the concentration that inhibits the measured activity by half. As to `CCCCOC(=O)c1ccc(NS(=O)(=O)c2cc(Cl)c(Cl)s2)cc1O` [Example 70, Butyl 4-{[(4,5-dichloro-2-thienyl)sulfonyl]amino}-2-hydroxybenzoate], the IC50 was found to be 200 nM.
The same measure, in the same setting: as for `COC(=O)c1ccc(NS(=O)(=O)c2ccc(-c3cc(F)ccc3F)s2)cc1O` [Example 118, Methyl 4-({[5-(2,5-difluorophenyl)thiophen-2-yl]sulfonyl}amino)-2-hydroxybenzoate], the figure is 2000 nM; as for `COC(=O)c1ccc(NS(=O)(=O)c2c(Cl)sc(Cl)c2C)cc1O` [Example 53, Methyl 4-{[(2,5-dichloro-4-methyl-3-thienyl)sulfonyl]amino}-2-hydroxybenzoate], 3100 nM; as for `COC(=O)c1ccc(NS(=O)(=O)c2ccc(CNC(=O)c3ccccc3)s2)cc1O` [Example 41, Methyl 2-hydroxy-4-{[(5-{[(phenylcarbonyl)amino]methyl}thiophen-2-yl)sulfonyl]amino}benzoate], 19000 nM.
Same read-out and setting: as for `O=C(OCCCNc1cccnc1)c1ccc(NS(=O)(=O)c2cccc(-c3cc(F)ccc3O)c2)cc1O` [Example 230, 3-(Pyridin-3-ylamino)propyl 4-{[(5′-fluoro-2′-hydroxybiphenyl-3-yl)sulfonyl]amino}-2-hydroxybenzoate trifluoroacetate], the figure is 1900 nM; as for `COC(=O)c1ccc(NS(=O)(=O)c2cccc(-c3ccc(C(=O)N(C)C)cc3)c2)cc1O` [Example 101, Methyl 4-({[4′-(dimethylcarbamoyl)biphenyl-3-yl]sulfonyl}amino)-2-hydroxybenzoate], 8400 nM; as for `COCCOC(=O)c1ccc(NS(=O)(=O)c2cc(-c3ccccc3O)c(Cl)s2)cc1O` [Example 133, 2-Methoxyethyl 4-({[5-chloro-4-(2-hydroxyphenyl)-2-thienyl]sulfonyl}amino)-2-hydroxybenzoate], 1200 nM.
On the same count and under the same terms, as for `COC(=O)c1ccc(NS(=O)(=O)Cc2cccc(-c3ccc4c(c3)CCO4)c2)cc1O` [Example 122, Methyl 4-({[3-(2,3-dihydro-1-benzofuran-5-yl)benzyl]sulfonyl}amino)-2-hydroxybenzoate], the figure is 5900 nM.
For the compound `O=C(OCCn1cccc1)c1ccc(NS(=O)(=O)c2cc(Cl)c(Cl)s2)cc1O` [Example 61, 2-(1H-Pyrrol-1-yl)ethyl 4-{[(4,5-dichlorothiophen-2-yl)sulfonyl]amino}-2-hydroxybenzoate], the IC50 came out at 600 nM.
Take `COC(=O)c1ccc(NS(=O)(=O)c2cccc(-c3ccncc3)c2)cc1O` [Example 89, Methyl 2-hydroxy-4-{[(3-pyridin-4-ylphenyl)sulfonyl]amino}benzoate trifluoroacetate]: the IC50 stood at 6700 nM.
Consider `COC(=O)c1ccc(NS(=O)(=O)c2ccc(C(F)(F)F)cc2)cc1O` [Example 16, Methyl 2-hydroxy-4-({[4-(trifluoromethyl)phenyl]sulfonyl}amino)benzoate], for which the IC50 turned out to be 4600 nM.
With `COC(=O)c1ccc(NS(=O)(=O)c2cc(Cl)cc(Cl)c2)cc1O` [Example 22, Methyl 4-{[(3,5-dichlorophenyl)sulfonyl]amino}-2-hydroxybenzoate], the IC50 turned out to be 1700 nM.

Still in this experiment, the particulars now being: at 12.5-50 μM in PANC-1 cells.
With `O=C(O)C(F)(F)F.O=C(OCCOc1ccc(Cl)nc1)c1ccc(NS(=O)(=O)c2cc(Cl)c(Cl)s2)cc1O` [Example 226, 2-[(6-Chloropyridin-3-yl)oxy]ethyl 4-{[(4,5-dichloro-2-thienyl)sulfonyl]amino}-2-hydroxybenzoate trifluoroacetate], the “inhibition (F-2,6-P2 levels)” value is at least 50%.
As to `COCc1cccc(OCCOC(=O)c2ccc(NS(=O)(=O)c3cc(Cl)c(Cl)s3)cc2O)c1` [Example 227, 2-[3-(Methoxymethyl)phenoxy]ethyl 4-{[(4,5-dichloro-2-thienyl)sulfonyl]amino}-2-hydroxybenzoate], the “inhibition (F-2,6-P2 levels)” value is listed as at least 50%.
Still for that read-out and setting: then `COC(=O)c1ccc(NS(=O)(=O)c2ccc(-c3ccccc3)cc2)cc1O` [Example 35, Methyl 4-[(biphenyl-4-ylsulfonyl)amino]-2-hydroxybenzoate], with at least 50%.
